Reference: article PMC10959927, “Platinum iodido drugs show potential anti-tumor activity, affecting cancer cell metabolism and inducing ROS and senescence in gastrointestinal cancer cells” (Communications Biology, 2024)
Several values for one entry are separate records, joined by “and”; a condition that tells them apart may be missing. Equal values may be shown once.

Assays:
NU-Foxn1nu nude mice [1] = assay: Whole blood hematology of treated xenograft mice; format: in vivo, mouse; conditions: for Basophils / Eosinophils / Haemoglobin / Hematocrit / Lymphocytes / MCH / MCHC / MCV / MPV / Monocytes / Neutrophils / RDW-CV: individual mice
Method: (§1) PANC1 cells were then trypsinized and resuspended in RPMI culture medium with 40% Matrigel (no. 45354234, Corning® Matrigel® Basement Membrane Matrix, LDEV-free, Cultek, Spain) at a concentration of 1 × 10^5 cells per 50 μL, and then 50 μL of the resuspended cells were subcutaneously injected into the right and left flanks of female 8 week-old NU-Foxn1nu nude mice (Janvier Labs, France). Tumor growth and volumes were monitored every 2–3 days for up to 4 weeks with a caliper, and tumor volumes (mm^3) were computed using the formula: 0.5 × D12 × D2, where D1 and D2 are the width or the […] diameter and the length or the smallest diameter of a given tumor, respectively. At the end of the experiment, mice were sacrificed, and tumors extracted, photographed, and weighed. (ii) For xenograft in vivo treatment experiments, 1 × 10^6 PANC1 cells resuspended in RPMI culture medium supplemented with 40% Matrigel (Corning®) were orthotopically injected in the pancreas of female NU-Foxn1nu nude mice (Janvier Labs, France). Approximately 2 months post injection, tumors were excised, cut into identical pieces of ~50 mm^3 and implanted (with RPMI culture medium supplemented with 40% Matrigel® Corning®) subcutaneously into the left and right flanks of 15 8 week-old NU-Foxn1nu nude mice (Janvier, France). […] Control mice were treated with 100 µl of physiological saline (0.9% NaCl). Tumor volumes were determined twice per week by caliper measurements throughout the course of the study as described above. At the indicated end point, mice were sacrificed, weighed, blood was collected in EDTA tubes (Aquisel, Cat no. 107545), urine was collected in 1.5 ml Eppendorf tubes, and tumors were excised, weighed, photographed, and fixed in 4% Paraformaldehyde (Alfa Aesar™).
(§2) Whole blood was analyzed with an Element HT5, Veterinary Hematology Analyzer (Scil animal care company GmbH, Madrid, Spain) and plasma was analyzed at the Analytical Laboratory of the Hospital Fundación Jiménez Díaz. Plasma-EDTA samples were examined for markers of renal (urea, BUN, and creatinine) and liver [bilirubin and GGT (γ-Glutamyltransferase)] injury. Urine was analyzed for protein, creatinine and glucose. Urea, creatinine, and glucose were detected by enzymatic assays, total protein by turbidimetry, and bilirubin and GGT via a colorimetric assay in the Cobas® Roche 701 module (a fully automated, high throughput photometric analyzer for a large array of quantitative and qualitative in vitro tests), following the manufacturer’s instructions.

[2] = system: PANC1 xenografted tumors in NU-Foxn1nu nude mice; assay: PANC1 xenograft in vivo treatment; parameters: species or system mouse; conditions: for Fold-change in tumor volume vs d0: individual tumors
Method: as §1

NU-Foxn1nu nude mice [3] = assay: Plasma biochemistry (renal and liver injury markers) of treated xenograft mice; format: in vivo, mouse; conditions: for BUN / Urea: blood
Method: as §1, §2

[4] = system: PANC1 cells in NU-Foxn1nu nude mice; assay: Xenograft of pre-treated PANC1 cells; format: in vivo, mouse; conditions: for Tumor Growth (mm3): ND: No Detected
Method: as §1

NU-Foxn1nu nude mice [5] = assay: Urine analysis of treated xenograft mice; format: in vivo, mouse
Method: as §1, §2

C57Bl6 mice = assay: In vivo safety: weight and Irwin's test after tail vein injection; parameters: species or system mouse; conditions: 1.4 mg/kg tail vein injection, early acute time points
[6] = 17 days of I5 treatment, 1.4 mg/kg r.o. or i.p.
[7] = PANC1 xenograft, 1.4 mg/kg r.o.
[8] = Intra-Peritoneal group (I5 1.4 mg/kg), d17, single mice, 1.4 mg/kg
[9] = Retro-Orbital group (I5 1.4 mg/kg), d17, single mice, 1.4 mg/kg
[10] = Intra-Peritoneal group (I5 1.4 mg/kg), single mice
[11] = Intra-Peritoneal group (I5 1.4 mg/kg), single mice, 1.4 mg/kg
[12] = Retro-Orbital group (I5 1.4 mg/kg), single mice, 1.4 mg/kg

SMILES: CC(C)[NH][Pt@SP3]([I])([I])[NH]C(C)C [I5, trans-[PtI2(isopropylamine)2]]
- adverse effects on hematocrit parameters (NU-Foxn1nu nude mice [1]; [6]): no adverse effects
- Basophils (NU-Foxn1nu nude mice [1]; Intra-peritoneal): 0.41 109 cells/L and 0.45 109 cells/L and 0.47 109 cells/L and 0.86 109 cells/L
- Eosinophils (NU-Foxn1nu nude mice [1]; Intra-peritoneal): 0.45 109 cells/L and 0.33 109 cells/L and 0.19 109 cells/L and 0.47 109 cells/L
- Haemoglobin (NU-Foxn1nu nude mice [1]; Intra-peritoneal): 18.5 g/dL and 17.5 g/dL and 19.1 g/dL and 17.7 g/dL
- Hematocrit (NU-Foxn1nu nude mice [1]; Intra-peritoneal): 43.4% and 39.8% and 44.6%
- Lymphocytes (NU-Foxn1nu nude mice [1]; Intra-peritoneal): 4.49 109 cells/L and 2.36 109 cells/L and 3.04 109 cells/L and 4.43 109 cells/L
- MCH (NU-Foxn1nu nude mice [1]; Intra-peritoneal): 19.3 pg and 19.1 pg and 19.2 pg and 19.7 pg
- MCHC (NU-Foxn1nu nude mice [1]; Intra-peritoneal): 42.6 g/dL and 44 g/dL and 42.8 g/dL and 44.4 g/dL
- MCV (NU-Foxn1nu nude mice [1]; Intra-peritoneal): 45.3 fL and 43.5 fL and 44.8 fL and 44.2 fL
- MPV (NU-Foxn1nu nude mice [1]; Intra-peritoneal): 6.1 fL and 5.5 fL and 6 fL
- Monocytes (NU-Foxn1nu nude mice [1]; Intra-peritoneal): 1.17 109 cells/L and 0.96 109 cells/L and 0.45 109 cells/L and 3.1 109 cells/L
- Neutrophils (NU-Foxn1nu nude mice [1]; Intra-peritoneal): 4.24 109 cells/L and 2.95 109 cells/L and 1.59 109 cells/L and 5.08 109 cells/L
- RDW-CV (NU-Foxn1nu nude mice [1]; Intra-peritoneal): 13.9% and 14.8% and 14.3%
- Basophils (NU-Foxn1nu nude mice [1]; Retro-orbital): 0.43 109 cells/L and 0.62 109 cells/L and 0.64 109 cells/L
- Eosinophils (NU-Foxn1nu nude mice [1]; Retro-orbital): 0.21 109 cells/L and 0.31 109 cells/L and 0.34 109 cells/L
- Haemoglobin (NU-Foxn1nu nude mice [1]; Retro-orbital): 18.3 g/dL
- Hematocrit (NU-Foxn1nu nude mice [1]; Retro-orbital): 42.9% and 41.4% and 42.8%
- Lymphocytes (NU-Foxn1nu nude mice [1]; Retro-orbital): 2.46 109 cells/L and 3.66 109 cells/L and 5.37 109 cells/L
- MCH (NU-Foxn1nu nude mice [1]; Retro-orbital): 19 pg and 20.5 pg and 19.2 pg
- MCHC (NU-Foxn1nu nude mice [1]; Retro-orbital): 42.6 g/dL and 44.2 g/dL and 42.9 g/dL
- MCV (NU-Foxn1nu nude mice [1]; Retro-orbital): 44.5 fL and 46.3 fL and 44.8 fL
- MPV (NU-Foxn1nu nude mice [1]; Retro-orbital): 5.6 fL and 6.1 fL and 5.2 fL
- Monocytes (NU-Foxn1nu nude mice [1]; Retro-orbital): 0.91 109 cells/L and 0.87 109 cells/L and 0.47 109 cells/L
- Neutrophils (NU-Foxn1nu nude mice [1]; Retro-orbital): 3.45 109 cells/L and 3.24 109 cells/L and 2.71 109 cells/L
- RDW-CV (NU-Foxn1nu nude mice [1]; Retro-orbital): 14.2% and 14.7% and 14.6%
- Fold-change in tumor volume vs d0 ([2]; IP, 0 days post-treatment initiation): 1
- Fold-change in tumor volume vs d0 ([2]; IP, 3 days post-treatment initiation): 1.05 and 1.45 and 0.79 and 1.51 and 1.63 and 0.95 and 1.1
- Fold-change in tumor volume vs d0 ([2]; IP, 7 days post-treatment initiation): 1.29 and 1.56 and 0.79 and 1.32 and 1.71 and 0.86 and 1.49
- Fold-change in tumor volume vs d0 ([2]; IP, 10 days post-treatment initiation): 1.75 and 2.48 and 0.96 and 2.5 and 2.73 and 1.37 and 2.28
- Fold-change in tumor volume vs d0 ([2]; IP, 14 days post-treatment initiation): 2.21 and 4.16 and 0.85 and 2.92 and 3.98 and 1.35 and 3.75
- Fold-change in tumor volume vs d0 ([2]; IP, 17 days post-treatment initiation): 3.08 and 4.39 and 0.91 and 3.92 and 4.58 and 1.62 and 4.25
- tumor growth ([2]; PANC1 xenograft, 1.4 mg/kg i.p.): reduced tumor growth
- tumor growth [2, 7]: reduced tumor growth
- tumor volume at conclusion of the experiment [2, 7]: statistically significant effect on tumor volume
- tumor weight at conclusion of the experiment [2, 7]: marked reduction in tumor weight
- Fold-change in tumor volume vs d0 ([2]; RO, 0 days post-treatment initiation): 1
- Fold-change in tumor volume vs d0 ([2]; RO, 3 days post-treatment initiation): 0.66 and 0.95 and 1.12 and 1.34 and 1.68
- Fold-change in tumor volume vs d0 ([2]; RO, 7 days post-treatment initiation): 0.81 and 1.29 and 1.57 and 1.05 and 1.08
- Fold-change in tumor volume vs d0 ([2]; RO, 10 days post-treatment initiation): 0.74 and 2.21 and 2.36 and 1.14 and 1.44
- Fold-change in tumor volume vs d0 ([2]; RO, 14 days post-treatment initiation): 0.85 and 2.64 and 3.43 and 1.26 and 1.18
- Fold-change in tumor volume vs d0 ([2]; RO, 17 days post-treatment initiation): 1.43 and 3.89 and 4.46 and 1.56 and 1.13
- adverse effects on plasma blood analyses (NU-Foxn1nu nude mice [3]; [6]): no adverse effects
- GGT (NU-Foxn1nu nude mice [3]; Intra-Peritoneal group (I5 1.4 mg/kg), d17, single mice): < 3 UI/L
- Serum Creatinine (NU-Foxn1nu nude mice [3]; [8]): 0.2 mg/dL and 0.17 mg/dL and 0.22 mg/dL
- GGT (NU-Foxn1nu nude mice [3]; Retro-Orbital group (I5 1.4 mg/kg), d17, single mice): < 3 UI/L
- Serum Creatinine (NU-Foxn1nu nude mice [3]; [9]): 0.17 mg/dL and 0.2 mg/dL and 0.21 mg/dL
- Total Bilirubin (NU-Foxn1nu nude mice [3]; [9]): < 0.15 mg/dL and < 0.21 mg/dL
- BUN (NU-Foxn1nu nude mice [3]; [8]): 19 mg/dL and 18 mg/dL and 16 mg/dL
- Urea (NU-Foxn1nu nude mice [3]; [8]): 40 mg/dL and 39 mg/dL and 38 mg/dL and 35 mg/dL
- BUN (NU-Foxn1nu nude mice [3]; [9]): 16 mg/dL and 19 mg/dL
- Urea (NU-Foxn1nu nude mice [3]; [9]): 40 mg/dL and 34 mg/dL and 35 mg/dL
- Tumor Take (%) ([4]; Day 7): 0%
- Tumor Take (%) ([4]; Day 10): 12.5%
- Tumor Growth (mm3) ([4]; Day 10, individual tumors): 10.7 mm3
- Tumor Take (%) ([4]; Day 13): 12.5%
- Tumor Growth (mm3) ([4]; Day 13, individual tumors): 7.7 mm3
- Tumor Take (%) ([4]; Day 16): 25%
- Tumor Growth (mm3) ([4]; Day 16, individual tumors): 9.4 mm3 and 8.5 mm3
- Tumor Take (%) ([4]; Day 20): 25%
- Tumor Growth (mm3) ([4]; Day 20, individual tumors): 7.4 mm3 and 10.1 mm3
- Tumor Take (%) ([4]; Day 23): 37.5%
- Tumor Growth (mm3) ([4]; Day 23, individual tumors): 8 mm3 and 10.9 mm3 and 9.7 mm3
- Tumor Take (%) ([4]; Day 28): 62.5%
- Tumor Growth (mm3) ([4]; Day 28, individual tumors): 9.8 mm3 (2×) and 10.8 mm3 and 10.9 mm3 and 11.6 mm3 and 8.7 mm3
- tumor volumes and weights on day 28 ([4]; PANC1 cells pre-treated 24 h with 20 µM, injected s.c. into nude mice): significantly reduced volumes and weights
- tumor take and growth ([4]; PANC1 cells pre-treated 24 h with 20 µM, injected s.c. into nude mice, 28 days): clear delay in tumor take and growth
- Tumor Weight ([4]; individual tumors): 0.1301 g and 0.0568 g and 0.1068 g and 0.0882 g and 0.0887 g and 0.1001 g
- adverse effects on urine analyses (NU-Foxn1nu nude mice [5]; [6]): no adverse effects
- Creatinine in Urine (NU-Foxn1nu nude mice [5]; [10]): 59 mg/dL
- Protein/Creatinine in Urine (NU-Foxn1nu nude mice [5]; [10]): 8814
- Glucose in Urine (NU-Foxn1nu nude mice [5]; [11]): 40 mg/dL and 20 mg/dL
- Protein in Urine (NU-Foxn1nu nude mice [5]; [11]): 80 mg/dL and 52 mg/dL
- Glucose in Urine (NU-Foxn1nu nude mice [5]; Retro-Orbital group (I5 1.4 mg/kg), single mice): 30 mg/dL
- Creatinine in Urine (NU-Foxn1nu nude mice [5]; [12]): 56 mg/dL and 57 mg/dL and 61 mg/dL
- Protein/Creatinine in Urine (NU-Foxn1nu nude mice [5]; [12]): 10536 and 9221 and 16383
- adverse effects on weight and neurological perturbations (Irwin's test) (C57Bl6 mice): no adverse effects
